Laboratory results as given in patent publication US9012458B2, “Antitumor agent using compounds having kinase inhibitory effect in combination” (Eisai R&D Management Co., Ltd., priority 2010, dated 2015).
Where a name gives a salt, the structure may show the parent alone.

Test system: human gastric cancer cell line (IM95m)
Test: Combined effect in model animal transplanted with human gastric cancer cell line (IM95m)
Format: in vivo
Conditions: IM95m s.c. in nude mouse, Compound A 10 mg/kg, Compound B 100 mg/kg, oral once daily, average ± standard deviation
Protocol: The human gastric cancer cell line IM95m (Health Science Research Resources Bank) was cultured using a DMEM medium (Wako Pure Chemical Industries, Ltd) containing […] glucose, 10% FBS, and 10 μg/mL insulin in a 5% CO2 incubator under the condition of 37° C. When the cells reached a state of approximately 80% confluency, the cells were collected using trypsin-EDTA. To these cells, a Hanks' Balanced Salt Solution containing 50% Matrigel was added to prepare a suspension at 1.0×10^8 cells/mL. The cell suspension thus obtained was subcutaneously transplanted at the lateral side of the body of a nude mouse (CAnN.Cg-Foxn1nu/CrlCrlj, Charles River Laboratories Japan, Inc.) in an amount of 0.1 mL, where each group contained six mice. From 13 days after the transplantation, Compound A (10 mg/kg, once daily, for 21 days) and Compound B (100 mg/kg, once daily, for 21 days) were orally administered continuously, either individually or both in a row.
Setting the initial day of administration at Day 0, the major axis and the minor axis of a tumor developed in each mouse were measured using Digimatic caliper (Mitsutoyo Corporation) thereafter on Day 4, 7, 11, 14, 18 and 21.
The tumor volume and the relative tumor volume were calculated according to the equations below. TV=major axis (mm)×minor axis^2 (mm^2)/2 RTV=TV on the day of measurement/TV on the initial day of administration

Compound | RTV (relative tumor volume) Day 4 | RTV (relative tumor volume) Day 7 | RTV (relative tumor volume) Day 11 | RTV (relative tumor volume) Day 14 | RTV (relative tumor volume) Day 18 | RTV (relative tumor volume) Day 21
COc1cc2nccc(Oc3ccc(NC(=O)NC4CC4)c(Cl)c3)c2cc1C(N)=O [Compound A, 4-(3-chloro-4-(cyclopropylaminocarbonyl)aminophenoxy)-7-methoxy-6-quinolinecarboxamide mesylate] | 1.53 ± 0.12 | 2.10 ± 0.18 | 2.65 ± 0.37 | 2.65 ± 0.49 | 2.80 ± 0.47 | 3.18 ± 0.57
CN1CCN(C2CCN(C(=O)Nc3cc(Oc4ccc(NC(=O)C5(C(=O)Nc6ccc(F)cc6)CC5)c(F)c4)ccn3)CC2)CC1 [Compound B, N-(2-fluoro-4-{[2-({[4-(4-methylpiperazin-1-yl)piperidin-1-yl]carbonyl}amino)pyridin-4-yl]oxy}phenyl)-N′-(4-fluorophenyl)cyclopropane-1,1-dicarboxamide tartrate] | 1.12 ± 0.08 | 1.24 ± 0.15 | 1.75 ± 0.17 | 1.85 ± 0.16 | 3.09 ± 0.48 | 4.02 ± 1.05
